target: T1, human full-length glucocorticoid receptor (Homo sapiens, UniProt P04150); assay: Glucocorticoid Receptor Binding Assay (II), fluorescence polarization competitor kit (Fluormone GS1); conditions: GR Binding Assay (II)
T1 construct: recombinantly expressed human full-length glucocorticoid receptor; purchased PanVera Co., Madison, Wis; P2816
T1 sequence (P04150 1-777): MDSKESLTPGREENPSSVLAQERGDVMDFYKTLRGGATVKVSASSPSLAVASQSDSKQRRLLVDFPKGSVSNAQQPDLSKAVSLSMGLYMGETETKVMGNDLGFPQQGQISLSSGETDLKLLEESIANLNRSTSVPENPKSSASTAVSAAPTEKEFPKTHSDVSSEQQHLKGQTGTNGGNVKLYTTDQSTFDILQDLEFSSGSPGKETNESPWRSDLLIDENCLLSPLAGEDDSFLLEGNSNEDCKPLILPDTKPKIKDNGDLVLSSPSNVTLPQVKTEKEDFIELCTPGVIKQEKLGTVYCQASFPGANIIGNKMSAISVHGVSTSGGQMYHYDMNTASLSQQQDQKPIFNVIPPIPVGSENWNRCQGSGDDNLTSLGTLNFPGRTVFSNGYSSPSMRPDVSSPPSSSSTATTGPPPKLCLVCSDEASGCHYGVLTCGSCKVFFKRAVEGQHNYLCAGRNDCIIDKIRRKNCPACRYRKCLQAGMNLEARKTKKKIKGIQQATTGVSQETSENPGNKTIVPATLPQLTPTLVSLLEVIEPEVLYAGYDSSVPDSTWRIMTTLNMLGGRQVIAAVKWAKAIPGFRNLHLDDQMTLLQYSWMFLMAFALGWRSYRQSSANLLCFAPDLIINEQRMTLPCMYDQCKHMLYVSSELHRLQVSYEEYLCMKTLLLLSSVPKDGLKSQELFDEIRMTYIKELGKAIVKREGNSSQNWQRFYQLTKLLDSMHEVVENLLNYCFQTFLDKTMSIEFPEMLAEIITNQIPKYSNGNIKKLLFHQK
Description: Glucocorticoid Receptor Binding Assay (II)^b
In order to measure the binding of compounds on the glucocorticoid receptor a commercially available kit was used (Glucocorticoid receptor competitor assay kit, PanVera Co., Madison, Wis., P2816). Briefly, a cell lysate containing recombinantly expressed human full-length glucocorticoid receptor was mixed with a fluorescently labeled glucocorticoid (1 nM Fluormone GS1) in the presence or absence of test compound. After one hour at room temperature, the fluorescence polarization (FP) of the samples were measured.

Ki | Compound
60.5 nM | CC(C)(C(=O)Nc1nncs1)C(c1ccccc1)c1ccc(N)cc1 (stereo not drawn) [Example 252, 3-(4-aminophenyl)-2,2-dimethyl-3-phenyl-N-1,3,4-thiadiazol-2-ylpropanamide]
19.9 nM | CC(C)(C(=O)Nc1nncs1)C(c1ccccc1)c1cccc(Br)c1 (stereo not drawn) [Example 312, 3-(3-bromophenyl)-2,2-dimethyl-3-phenyl-N-1,3-thiadiazol-2-ylpropanamide]
15.8 nM | CC(C)(C(=O)Nc1nccs1)C(c1ccccc1)c1ccc(-c2ccoc2)cc1 (stereo not drawn) [Example 376, 3-(4-(3-furanyl)phenyl)-2,2-dimethyl-3-phenyl-N-1,3-thiazol-2-ylpropanamide]
17.8 nM | CC(C)(C(=O)Nc1nncs1)C(c1ccccc1)c1ccc(N2CCOCC2)c(F)c1 (stereo not drawn) [Example 244, 3-(3-fluoro-4-(4-morpholinyl)phenyl)-2,2-dimethyl-3-phenyl-N-1,3,4-thiadiazol-2-ylpropanamide]
21.7 nM | CC(=O)Oc1ccc([C@@H](c2ccccc2)C(C)(C)C(=O)Nc2nccs2)cc1 [Example 360, 4-((1R)-2,2-Dimethyl-3-oxo-1-phenyl-3-(1,3-thiazol-2-ylamino)propyl)phenyl acetate]
987 nM | COc1ccc([C@H](c2ccccc2)C(C)(C)C(=O)NC2CCCC2)cc1 [Example 273, (3S)-N-cyclopentyl-2,2-dimethyl-3-(4-(methyloxy)phenyl)-3-phenylpropanamide]
130 nM | CCOC(=O)c1csc(NC(=O)C(C)(C)[C@@H](c2ccccc2)c2ccc(OC)cc2)n1 [Example 263, ethyl 2-((2,2-dimethyl-3-(4-(methyloxy)phenyl)-3-phenylpropanoyl)amino)-1,3-thiazole-4-carboxylate]
76.4 nM | CC(C)(C(=O)Nc1nccs1)C(c1ccccc1)c1ccc(F)cc1 (stereo not drawn) [Example 309, 3-(4-fluorophenyl)-2,2-dimethyl-3-phenyl-N-1,3-thiazol-2-ylpropanamide]
181 nM | CC(C)(C(=O)Nc1nccs1)C(C)(c1ccccc1)c1ccc(N2CCOCC2)cc1 (stereo not drawn) [Example 249, 2,2-dimethyl-3-(4-(4-morpholinyl)phenyl)-3-phenyl-N-1,3-thiazol-2-ylbutanamide]
9.6 nM | CC(C)(C(=O)Nc1nccs1)C(c1ccccc1)c1ccc(N2CCC(O)CC2)cc1 (stereo not drawn) [Example 242, 3-(4-(4-hydroxy-1-piperidinyl)phenyl)-2,2-dimethyl-3-phenyl-N-1,3-thiazol-2-ylpropanamide]
13.6 nM | CC(C)(C(=O)Nc1nncs1)C(c1ccccc1)c1ccc(N2CCCC2)cc1 (stereo not drawn) [Example 237, 2,2-dimethyl-3-phenyl-3-(4-(1-pyrrolidinyl)phenyl)-N-1,3,4-thiadiazol-2-ylpropanamide]
169 nM | Cc1csc(NC(=O)C(C)(C)[C@H](c2ccccc2)c2ccc(O)cc2)n1 [Example 330, (3R)-3-(4-hydroxyphenyl)-2,2-dimethyl-N-(4-methyl-1,3-thiazol-2-yl)-3-phenylpropanamide]
9.4 nM | Cc1ccc(C(c2ccc(N3CCOCC3)cc2)C(C)(C)C(=O)Nc2nncs2)cc1 (stereo not drawn) [Example 226, 2,2-dimethyl-3-(4-methylphenyl)-3-(4-(4-morpholinyl)phenyl)-N-1,3,4-thiadiazol-2-ylpropanamide]
38.1 nM | CC(O)c1ccc(C(c2ccccc2)C(C)(C)C(=O)Nc2nccs2)cc1 (stereo not drawn) [Example 371, 3-(4-(1-Hydroxyethyl)phenyl)-2,2-dimethyl-3-phenyl-N-1,3-thiazol-2-ylpropanamide]
26.9 nM | COc1ccc(C(c2ccccc2)C(C)(C)C(=O)Nc2nncs2)cc1F (stereo not drawn) [Example 284, 3-(3-fluoro-4-(methyloxy)phenyl)-2,2-dimethyl-3-phenyl-N-1,3,4-thiadiazol-2-ylpropanamide]
90.9 nM | CC(C)(C(=O)Nc1nccs1)[C@@H](c1ccccc1)c1cccc(O)c1 [Example 327, 3-(3-hydroxyphenyl)-2,2-dimethyl-3-phenyl-N-1,3-thiazol-2-ylpropanamide]
306 nM | CC(C)(C)OC(=O)Nc1ccc(C(c2ccccc2)C(C)(C)C(=O)Nc2nncs2)cc1 (stereo not drawn) [Example 248, 1,1-dimethylethyl (4-(2,2-dimethyl-3-oxo-1-phenyl-3-(1,3,4-thiadiazol-2-ylamino)propyl)phenyl)carbamate]
26.6 nM | CC(C)(C(=O)Nc1nccs1)C(c1ccccc1)c1ccc(C#N)cc1 (stereo not drawn) [Example 310, 3-(4-cyanophenyl)-2,2-dimethyl-3-phenyl-N-1,3-thiazol-2-ylpropanamide]

Ki | Compound
1530 nM | COc1ccc([C@@H](c2ccccc2)C(C)(C)C(=O)NC2CCCC2)cc1 [Example 274, (3R)-N-cyclopentyl-2,2-dimethyl-3-(4-(methyloxy)phenyl)-3-phenylpropanamide]
111 nM | COc1ccc([C@H](c2ccccc2)C(C)(C)C(=O)Nc2ncc(C)s2)cc1 [Example 267, (3S)-2,2-dimethyl-3-(4-(methyloxy)phenyl)-N-(5-methyl-1,3-thiazol-2-yl)-3-phenylpropanamide]
15.5 nM | CC(C)(C(=O)Nc1nccs1)C(c1ccccc1)c1ccc(F)cc1 (stereo not drawn) [Example 307, 3-(4-fluorophenyl)-2,2-dimethyl-3-phenyl-N-1,3-thiazol-2-ylpropanamide]
10.9 nM | CC(C)(C(=O)Nc1nncs1)C(c1ccccc1)c1ccc(Br)c(F)c1 (stereo not drawn) [Example 315, 3-(4-bromo-3-fluorophenyl)-2,2-dimethyl-3-phenyl-N-1,3,4-thiadiazol-2-ylpropanamide]
302 nM | COc1ccc([C@@H](c2ccccc2)C(C)(C)C(=O)Nc2ncc(C)s2)cc1 [Example 268, (3R)-2,2-dimethyl-3-(4-(methyloxy)phenyl)-N-(5-mehtyl-1,3-thiazol-2-yl)-3-phenylpropanamide]
348 nM | CC(C)(C(=O)Nc1nccs1)C(c1ccccc1)c1ccc(N2CCNCC2)cc1 (stereo not drawn) [Example 250, 2,2-Dimethyl-3-phenyl-3-(4-(1-piperazinyl)phenyl)-N-1,3-thiazol-2-ylpropanamide]
13.2 nM | CC(C)(C(=O)Nc1nccs1)C(c1ccccc1)c1ccc(Br)c(F)c1 (stereo not drawn) [Example 314, 3-(4-bromo-3-fluorophenyl)-2,2-dimethyl-3-phenyl-N-1,3-thiazol-2-ylpropanamide]
2670 nM | COc1ccc([C@H](c2ccccc2)C(C)(C)C(=O)Nc2ccccn2)cc1 [Example 277, (3S)-2,2-dimethyl-3-(4-(methyloxy)phenyl)-3-phenyl-N-2-pyridinylpropanamide]
11 nM | CC(C)(C(=O)Nc1nccs1)C(c1ccccc1)c1ccc(-c2ccncc2)cc1 (stereo not drawn) [Example 375, 2,2-dimethyl-3-phenyl-3-(4-(4-pyridinyl)phenyl)-N-1,3-thiazol-2-ylpropanamide]
51.9 nM | COc1ccc([C@H](c2ccccc2)C(C)(C)C(=O)Nc2nncs2)cc1 [Example 275]
472 nM | CC(C)(C(=O)Nc1nccs1)C(C)(c1ccccc1)c1ccccc1 [Example 316, 2,2-dimethyl-3,3-diphenyl-N-1,3-thiazol-2-ylbutanamide]
67.2 nM | COc1ccc(C(c2ccc(OC)cc2)C(C)(C)C(=O)Nc2nccs2)cc1 [Example 69, 2,2-dimethyl-3,3-bis(4-(methyloxy)phenyl)-N-1,3-thiazol-2-ylpropanamide]
2000 nM | COc1ccc([C@@H](c2ccccc2)C(C)(C)C(=O)NC2CC2)cc1 [Example 270, (3R)-N-cyclopropyl-2,2-dimethyl-3-(4-(methyloxy)phenyl)-3-phenylpropanamide]
57.6 nM | CC(C)(C(=O)Nc1nccs1)C(c1ccccc1)c1cccc(C#N)c1 (stereo not drawn) [Example 313, 3-(3-cyanophenyl)-2,2-dimethyl-3-phenyl-N-1,3-thiazol-2-ylpropanamide]
320 nM | CC(O)c1cccc(C(c2ccccc2)C(C)(C)C(=O)Nc2nccs2)c1 (stereo not drawn) [Example 373, 3-(3-(1-hydroxyethyl)phenyl)-2,2-dimethyl-3-phenyl-N-1,3-thiazol-2-ylpropanamide]
17.5 nM | CC(C)(C(=O)Nc1nccs1)C(c1ccccc1)c1cccc(Br)c1 (stereo not drawn) [Example 311, 3-(3-bromophenyl)-2,2-dimethyl-3-phenyl-N-1,3-thiazol-2-ylpropanamide]
408 nM | CC(C)(C)OC(=O)N1CCN(c2ccc(C(c3ccccc3)C(C)(C)C(=O)Nc3nncs3)cc2)CC1 (stereo not drawn) [Example 238, 1,1-dimethylethyl 4-(4-(2,2-dimethyl-3-oxo-1-phenyl-3-(1,3,4-thiadiazol-2-ylamino)propyl)phenyl)-1-piperazinecarboxylate]
100 nM | COc1ccc(C(c2ccccc2)C(C)(C)C(=O)Nc2nncs2)c(F)c1 (stereo not drawn) [Example 280, 3-(2-fluoro-4-(methyloxy)phenyl)-2,2-dimethyl-3-phenyl-N-1,3,4-thiadiazol-2-ylpropanamide]

Source: patent US7968577B2 (Bristol-Myers Squibb Company, priority 2006, dated 2011)
